From US7585859B2, “PDE4B inhibitors and uses therefor” (Plexxikon, Inc., priority 2004, dated 2009)
Read-outs that look alike come from different tables or passages of the source.

Columns and labels:
[1] = target: T1, PDE4D (Homo sapiens, UniProt Q08499); assay: PDE4 IC50 determination by Scintillation Proximity Assay, PDE4D; type: biochemical
T1 construct: PDE4D: The catalytic domain of human PDE4B from S3 16-V692; His6 (N); thrombin cleavage site (N); made in house; host or cells: E. coli
Procedure, shortened: (§1)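 Scintillation counts reflected [^3H]AMP captured on yttrium silicate SPA beads after enzyme hydrolysed [^3H]cAMP for 30 min at 30°. PDE4B was used at 80 ng/ml and PDE4D at 4 ng/ml. IC50 values came from non-linear regression.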

[2] = target: T2, PDE4B: The catalytic domain of human PDE4B from S152-S528 (Homo sapiens, UniProt Q07343); assay: PDE4 IC50 determination by Scintillation Proximity Assay, PDE4B; type: biochemical
T2 construct: His6 (N); thrombin cleavage site (N); made in house; host or cells: E. coli
Procedure, shortened: as §1

[3] = second part of Table 2B (2-23 to 2-103), column 5, column is PDE4D in first part, read-out: IC 50 vs. indicated assay h TNFα
[4] = second part of Table 2B (2-23 to 2-103), column 3, column is PDE4B in first part, read-out: IC 50 vs. indicated assay h TNFα
[5] = Table 3A, Formula III compounds, read-out: IC50 PDE4D
[6] = Table 3A, Formula III compounds, read-out: IC50 PDE4B

T1 sequence (Q08499 380-756): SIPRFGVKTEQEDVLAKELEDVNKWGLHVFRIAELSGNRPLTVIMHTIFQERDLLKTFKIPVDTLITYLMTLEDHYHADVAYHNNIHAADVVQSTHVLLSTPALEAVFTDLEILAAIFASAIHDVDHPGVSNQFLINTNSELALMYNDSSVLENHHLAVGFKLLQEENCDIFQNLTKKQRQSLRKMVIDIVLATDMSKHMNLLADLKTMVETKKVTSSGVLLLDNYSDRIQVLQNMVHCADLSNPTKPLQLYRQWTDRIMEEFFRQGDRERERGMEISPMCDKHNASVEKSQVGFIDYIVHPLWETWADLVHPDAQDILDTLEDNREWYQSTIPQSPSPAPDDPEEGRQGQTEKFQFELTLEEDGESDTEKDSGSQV
T2 sequence (Q07343 with tags, fused parts or gaps): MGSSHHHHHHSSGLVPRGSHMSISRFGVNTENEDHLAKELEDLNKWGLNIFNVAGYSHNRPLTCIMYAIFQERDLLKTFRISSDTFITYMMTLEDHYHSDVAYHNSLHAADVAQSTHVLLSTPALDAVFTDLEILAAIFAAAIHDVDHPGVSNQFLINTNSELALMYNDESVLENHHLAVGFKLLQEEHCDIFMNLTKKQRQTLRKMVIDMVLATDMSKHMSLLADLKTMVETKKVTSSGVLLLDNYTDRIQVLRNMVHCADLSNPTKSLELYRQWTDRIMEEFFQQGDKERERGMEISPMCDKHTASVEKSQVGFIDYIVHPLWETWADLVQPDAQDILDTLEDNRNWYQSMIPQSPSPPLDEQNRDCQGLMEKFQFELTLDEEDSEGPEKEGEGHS

| Compound | IC50 [1, 3] [µM] | IC50 [2, 4] [µM] | further results |
| --- | --- | --- | --- |
| Nc1nc(Nc2ccc(Oc3ccccc3)cc2)sc1C(=O)c1ccccc1Cl [Compound 2-66, [4-Amino-2-(4-phenoxy-phenylamino)-thiazol-5-yl]-(2-chloro-phenyl)-methanone] | > 10 | < 10 |  |
| COc1cccc(C(=O)c2sc(NC(C)C)nc2N)c1 [Compound 2-69, (4-Amino-2-isopropylamino-thiazol-5-yl)-(3-methoxy-phenyl)-methanone] | > 10 | < 10 |  |
| Nc1nc(Nc2ccccn2)sc1C(=O)c1ccccc1 [Compound 2-73, [4-Amino-2-(pyridin-2-ylamino)-thiazol-5-yl]-phenyl-methanone] | > 10 | < 10 |  |
| Nc1nc(NC2CCCC2)sc1C(=O)c1ccccc1Cl [Compound 2-75, (4-Amino-2-cyclopentylamino-thiazol-5-yl)-(2-chloro-phenyl)-methanone] | > 10 | > 10 |  |
| COc1ccc(C(=O)c2sc(NC3CCCC3)nc2N)cc1 [Compound 2-78, (4-Amino-2-cyclopentylamino-thiazol-5-yl)-(4-methoxy-phenyl)-methanone] |  |  | IC50 [1]: < 10 µM; IC50 [2]: < 10 µM |
| Nc1nc(NC2CC2)sc1C(=O)c1ccc(OC(F)F)cc1 [Compound 2-85, (4-Amino-2-thiazol-5-yl)-(4-difluoromethoxy-phenyl)-methanone] | > 10 | < 10 |  |
| COc1cccc(C(=O)c2sc(NC3CC3)nc2N)c1 [Compound 2-87, (4-Amino-2-cyclopropylamino-thiazol-5-yl)-(3-methoxy-phenyl)-methanone] | < 10 | < 10 |  |
| Nc1nc(NC2CC2)sc1C(=O)c1cccc(C(F)(F)F)c1 [Compound 2-88, (4-Amino-2-cyclopropylamino-thiazol-5-yl)-(3-trifluoromethyl-phenyl)-methanone] | < 10 | < 10 |  |
| Nc1nc(Nc2ccccc2)sc1C(=O)C1CCCC1 [Compound 2-89, (4-Amino-2-phenylamino-thiazol-5-yl)-cyclopentyl-methanone] | < 10 | < 10 |  |
| Nc1nc(Nc2ccccc2)sc1C(=O)C1CCCCC1 [Compound 2-90, (4-Amino-2-phenylamino-thiazol-5-yl)-cyclohexyl-methanone] | < 10 | < 10 |  |
| Nc1nc(Nc2ccc(Cl)cc2)sc1C(=O)C1CCCCC1 [Compound 2-91, [4-Amino-2-(4-chloro-phenylamino)-thiazol-5-yl]-cyclohexyl-methanone] | > 10 | < 10 |  |
| Nc1nc(Nc2c(Cl)cccc2Cl)sc1C(=O)CC1CCCC1 [Compound 2-94, 1-[4-Amino-2-(2,6-dichloro-phenylamino)-thiazol-5-yl]-2-cyclopentyl-ethanone] | > 10 | > 10 |  |
| Nc1nc(Nc2ccccc2)sc1C(=O)C1CC1 [Compound 2-95, (4-Amino-2-phenylamino-thiazol-5-yl)-cyclopropyl-methanone] | > 10 | < 10 |  |
| Nc1nc(Nc2c(Cl)cccc2Cl)sc1C(=O)C1CC1 [Compound 2-96, [4-Amino-2-(2,6-dichloro-phenylamino)-thiazol-5-yl]-cyclopropyl-methanone] | < 10 | < 10 |  |
| Nc1nc(Nc2ccc(Oc3ccccc3)cc2)sc1C(=O)C1CC1 [Compound 2-97, [4-Amino-2-(4-phenoxy-phenylamino)-thiazol-5-yl]-cyclopropyl-methanone] | < 10 | < 10 |  |
| Nc1nc(Nc2ccccc2F)sc1C(=O)C1CCCC1 [Compound 2-98, [4-Amino-2-(2-fluoro-phenylamino)-thiazol-5-yl]-cyclopentyl-methanone] | < 10 | < 10 |  |
| COc1ccc(Nc2nc(N)c(C(=O)C3CCCC3)s2)cc1 [Compound 2-99, [4-Amino-2-(4-methoxy-phenylamino)-thiazol-5-yl]-cyclopentyl-methanone] | > 10 | > 10 |  |
| N#Cc1cccc(Nc2nc(N)c(C(=O)C3CCCC3)s2)c1 [Compound 2-100, 3-(4-Amino-5-cyclopentanecarbonyl-thiazol-2-ylamino)-benzonitrile] | < 10 | < 10 |  |
| Nc1nc(Nc2ccc(Oc3ccccc3)cc2)sc1C(=O)C1CCCC1 [Compound 2-101, [4-Amino-2-(4-phenoxy-phenylamino)-thiazol-5-yl]-cyclopentyl-methanone] | > 10 | > 10 |  |
| Nc1nc(NC2CCCC2)sc1C(=O)c1ccsc1 [Compound 2-102, (4-Amino-2-cyclopentylamino-thiazol-5-yl)-thiophen-3-yl-methanone] | < 10 | < 10 |  |
| Nc1nc(NC2CCCC2)sc1C(=O)c1nc2ccccc2s1 [Compound 2-103, (4-Amino-2-cyclopentylamino-thiazol-5-yl)-benzothiazol-2-yl-methanone] | < 10 | < 10 |  |
| O=S(=O)(Nc1cccc2cccnc12)c1cccs1 [Compound 3-1, Thiophene-2-sulfonic acid guinolin-8-ylamide] |  |  | IC50 [1, 5]: > 10 µM; IC50 [2, 6]: > 10 µM |
| COc1cc(NS(=O)(=O)c2ccc(Br)s2)c2ncccc2c1 [Compound 3-2, 5-Bromo-thiophene-2-sulfonic acid (6-methoxy-quinolin-8-yl)-amide] |  |  | IC50 [1, 5]: > 10 µM; IC50 [2, 6]: > 10 µM |
| Cc1ccc2cccnc2c1NS(=O)(=O)c1ccc(Cl)s1 [Compound 3-3, 5-Chloro-thiophene-2-sulfonic acid (7-methyl-quinolin-8-yl)-amide] |  |  | IC50 [1, 5]: > 10 µM; IC50 [2, 6]: > 10 µM |
| O=S(=O)(Nc1cccc2cccnc12)c1ccc(Br)s1 [Compound 3-4, 5-Bromo-thiophene-2-sulfonic acid quinolin-8-ylamide] |  |  | IC50 [1, 5]: > 10 µM; IC50 [2, 6]: > 10 µM |
| Cc1ccc2cccnc2c1NS(=O)(=O)c1cccs1 [Compound 3-5, Thiophene-2-sulfonic acid (7-methyl-quinolin-8-yl)-amide] |  |  | IC50 [1, 5]: > 10 µM; IC50 [2, 6]: > 10 µM |
| Cc1ccc2cccnc2c1NS(=O)(=O)c1ccc(Br)s1 [Compound 3-6, 5-Bromo-thiophene-2-sulfonic acid (7-methyl-quinolin-8-yl)-amide] |  |  | IC50 [1, 5]: > 10 µM; IC50 [2, 6]: > 10 µM |
| O=S(=O)(Nc1cccc2cccnc12)c1ccc(Cl)s1 [Compound 3-7, 5-Chloro-thiophene-2-sulfonic acid quinolin-8-ylamide] |  |  | IC50 [1, 5]: > 10 µM; IC50 [2, 6]: > 10 µM |
| Cc1ccc2cccnc2c1NS(=O)(=O)c1cc(Cl)c(Cl)s1 [Compound 3-8, 4,5-Dichloro-thiophene-2-sulfonic acid (7-methyl-quinolin-8-yl)-amide] |  |  | IC50 [1, 5]: > 10 µM; IC50 [2, 6]: > 10 µM |

Further lines, with some results ahead:

| IC50 [1, 3] [µM] | IC50 [2, 4] [µM] | Compound | further results |
| --- | --- | --- | --- |
| < 10 | < 10 | COc1cccc(C(=O)c2sc(Nc3ccc(Oc4ccccc4)cc3)nc2N)c1 [Compound 2-65, [4-Amino-2-(4-phenoxy-phenylamino)-thiazol-5-yl]-(3-methoxy-phenyl)-methanone] |  |
| < 10 | < 10 | Nc1nc(NCc2ccccc2)sc1C(=O)c1ccccc1 [Compound 2-68, (4-Amino-2-benzylamino-thiazol-5-yl)-phenyl-methanone] |  |
| < 10 | < 10 | Nc1nc(Nc2cccc3ccccc23)sc1C(=O)c1ccccc1 [Compound 2-70, [4-Amino-2-(naphthalen-1-ylamino)-thiazol-5-yl]-phenyl-methanone] |  |
| < 10 | < 10 | Nc1nc(Nc2cccnc2)sc1C(=O)c1ccccc1 [Compound 2-71, [4-Amino-2-(pyridin-3-ylamino)-thiazol-5-yl]-phenyl-methanone] |  |
| < 10 | < 10 | COc1ccc(C(=O)c2sc(Nc3cccnc3)nc2N)cc1 [Compound 2-72, [4-Amino-2-(pyridin-3-ylamino)-thiazol-5-yl]-(4-methoxy-phenyl)-methanone] |  |
| < 10 | > 10 | Nc1nc(Nc2ccc(Oc3ccccc3)nc2)sc1C(=O)c1ccccc1 [Compound 2-74, [4-Amino-2-(6-phenoxy-pyridin-3-ylamino)-thiazol-5-yl]-phenyl-methanone] |  |
| < 10 | < 10 | Nc1nc(NC2CC2)sc1C(=O)c1ccc(Oc2ccccc2)cc1 [Compound 2-77, (4-Amino-2-cyclopropylamino-thiazol-5-yl)-(4-phenoxy-phenyl)-methanone] |  |
| < 10 | < 10 | COc1ccc(C(=O)c2sc(NC3CC3)nc2N)cc1 [Compound 2-79, (4-Amino-2-cyclopropylamino-thiazol-5-yl)-(4-methoxy-phenyl)-methanone] |  |
| < 10 | < 10 | Nc1nc(NC2CC2)sc1C(=O)c1cccc(Cl)c1 [Compound 2-81, (4-Amino-2-cyclopropylamino-thiazol-5-yl)-(3-chloro-phenyl)-methanone] |  |
| < 10 | < 10 | Nc1nc(NC2CCCC2)sc1C(=O)c1cccc(C(F)(F)F)c1 [Compound 2-82, (4-Amino-2-cyclopentylamino-thiazol-5-yl)-(3-trifluoromethyl-phenyl)-methanone] |  |
| < 10 | < 10 | Nc1nc(NC2CCCC2)sc1C(=O)c1ccc(OC(F)F)cc1 [Compound 2-84, (4-Amino-2-cyclopentylamino-thiazol-5-yl)-(4-difluoromethoxy-phenyl)-methanone] |  |
| < 10 | < 10 | COc1cccc(C(=O)c2sc(NC3CCCC3)nc2N)c1 [Compound 2-86, (4-Amino-2-cyclopentylamino-thiazol-5-yl)-(3-methoxy-phenyl)-methanone] |  |
